According to patent publication US20110028566A1, “COMPOSITIONS AND PRODUCTS CONTAINING CYCLOALIPHATIC DIOL ANTIMICROBIAL AGENTS AND METHODS OF USING THE COMPOSITIONS AND PRODUCTS” (EASTMAN CHEMICAL COMPANY, priority 2009, published 2011):
Where “and” joins values, the source holds several entries; their conditions need not be identical. Identical values can stand only once.

Experiments:
[1] = tested on: Aspergillus niger ATCC 16404; test: MIC determination and synergy testing (Kull synergy index), microplate; type: cell-based
Protocol: (§1) The test cultures are listed in Table 7 along with the incubation temperatures used for growth and minimum inhibitory concentration (MIC) testing. […] C. albicans was cultured in Sabouraud dextrose broth (SDB) for approximately 44-52 hours for preparation of inoculum. A. niger was cultured on Sabouraud dextrose agar (SDA) for 3-4 days until there was confluent growth and visible spore formation. Spores were harvested from the SDA plates by flooding the surface of the plate with 5-10 mL of phosphate-buffered saline (PBS) and gently spreading the liquid across the surface of the plate with a sterile T-shaped plastic spreader (Copan Diagnostics) until there was a well-mixed suspension of spores. The resulting spore suspension was collected using a serological pipette and stored at 2-8° C. until use.
(§2) Inoculum concentration was determined by dilution plating of the cultures or spore suspension. A serial dilution in PBS was made to 10^−8 for the bacterial cultures or 10^−5 for the fungal cultures. Fifty or 100 μL of the final dilution was spread on two Trypticase-soy agar (TSA) plates for bacteria or two SDA plates for fungi. After 24 to 48 hours plates were counted and the concentrations used in each experiment were calculated.
The A. niger spore suspensions were concentrated to a level of 1-2×10^8 spores/mL by centrifugation and resuspension in a portion of the resulting supernatant.
(§3) The antimicrobial agents tested for synergy along with the respective diluents and working stock solution concentrations are shown below. For determination of MIC ranges, individual antimicrobial agent stock solutions were added to sterile medium to yield the highest level test concentrations, and then serially diluted in the medium to prepare the range of test concentrations. For synergy testing individual test concentrations were prepared in sterile medium, and then blended to form the desired combinations.
(§4) MICs were determined using a high-throughput microplate method. Individual antimicrobial agents were added to TSB (pH 7.3) for bacterial testing or SDB (pH 5.6) for fungal testing at the highest concentration to be tested. A serial dilution series was prepared at a dilution ratio of 1:1.3333 such that a one log range was covered in nine dilutions. Two-hundred microliters of the diluted antimicrobial agents were dispensed into four wells each of a sterile, 96-well, flat-bottom microplate (Nalge Nunc International). Four additional wells of the highest concentration were dispensed to serve as uninoculated high-level controls. Eight additional wells containing only broth medium were also prepared, four to serve as negative controls and four as positive controls. Three wells of each antimicrobial agent dilution were inoculated with one of the test strains in Table 7. The final well of each antimicrobial agent dilution was left uninoculated to serve as a control (and means of compensating) for any absorbance/turbidity due to the test compounds.
Microplates were inoculated using the cultures or spore suspensions prepared as described above. The S. aureus cultures were used undiluted, while the E. coli and P. aeruginosa cultures were used either undiluted or after a 1:2 dilution in sterile TSB. The C. albicans cultures were used either undiluted or following a 2-fold concentration by centrifugation. One of two means of inoculation was used to deliver a final concentration of approximately 10^5 colony-forming units (CFU)/mL of C. albicans, 10^5 spores/mL of A. niger, or 10^6 CFU/mL of bacteria. The primary method used a stainless steel pin replicator (Nalge Nunc International) mounted on a hand-operated bench-top press (Schmidt Technology Corporation) fitted with a custom-built microplate holder to dispense one microliter of each inoculum from a “master” plate containing 50-100 μL of culture into the wells of the test plate. The pin replicator was sterilized before and between inoculations by immersing in ethanol and flaming. […]

[2] = tested on: Escherichia coli ATCC 25922; test: as above; type: cell-based; conditions: for QA, MIC of CHDM alone / QA/a: concentration of CHDM (MIC alone, or in the combination at an inhibitory concentration) / SI (synergy index) / QA/a: concentration of CHDM alone (QA, MIC) / QB/b: concentration of CG (MIC alone, or in the combination at an inhibitory concentration): E. coli; for QA/a: concentration of CHDM (MIC alone, or in the combination at an inhibitory concentration) / SI (synergy index) / QB/b: concentration of CG (MIC alone, or in the combination at an inhibitory concentration): plate 107A, CG and CHDM
Protocol: as §1, §2, §3, §4
Microplates were inoculated using the cultures or spore suspensions prepared as described above. The S. aureus cultures were used undiluted, while the E. coli and P. aeruginosa cultures were used either undiluted or after a 1:2 dilution in sterile TSB. The C. albicans cultures were used either undiluted or following a 2-fold concentration by centrifugation. One of two means of inoculation was used to deliver a final concentration of approximately 10^5 colony-forming units (CFU)/mL of C. albicans, 10^5 spores/mL of A. niger, or 10^6 CFU/mL of bacteria. The primary method used a stainless steel pin replicator (Nalge Nunc International) mounted on a hand-operated bench-top press (Schmidt Technology Corporation) fitted with a custom-built microplate holder to dispense one microliter of each inoculum from a “master” plate containing 50-100 μL of culture into the wells of the test plate. The pin replicator was sterilized before and between inoculations by immersing in ethanol and flaming. The alternative method of inoculation was by directly pipetting 20 μL of a 1:20 dilution of each culture or spore suspension into the appropriate wells of the test plates.

[3] = A. niger, plate 154C, day 3, MP and CHDM

## OCC1CCC(CO)CC1 (stereo not drawn) [1,4-CHDM, 1,4-cyclohexanedimethanol]
[1]; A. niger, day 2 of incubation, plates 123C, 217C (CG series)
  QA, MIC of CHDM alone: 4.50 weight percent and 3.11 weight percent
[1]; A. niger, day 3 of incubation, plate 123C (CG series)
  QA, MIC of CHDM alone: 3.11 weight percent
[1]; [3]
  QA/a: concentration of CHDM (MIC alone, or in the combination at an inhibitory concentration): 2.03 weight percent
  SI (synergy index): 1.00
[1]; CHDM alone (QA) or in combination with DMDM hydantoin (a), plate 196C, day 3
  QA/a: 2.78
[1]; CHDM alone (QA) or in combination with IPBC (a), plate 259C, day 2
  QA/a: 5.00
[1]; CHDM alone (QA) or in combination with IPBC (a), plate 260C, day 3
  QA/a: 6.50
[1]; CHDM: MIC alone (QA) or conc. in combination with BA:DHA (a), plate 195C, day 2
  QA/a: 4.93
[1]; CHDM: MIC alone (QA) or conc. in combination with BA:DHA (a), plate 195C, day 3
  QA/a: 4.93
[1]; CHDM: MIC alone (QA) or conc. in combination with BA:DHA (a), plate 215C, day 2
  QA/a: 4.50
[1]; CHDM: MIC alone (QA) or conc. in combination with BA:DHA (a), plate 215C, day 3
  QA/a: 4.50
[1]; CHDM: MIC alone (QA) or conc. in combination with CP (a), plate 194C, day 2
  QA/a: 3.70
[1]; CHDM: MIC alone (QA) or conc. in combination with CP (a), plate 194C, day 3
  QA/a: 2.78
[1]; CHDM: MIC alone (QA) or conc. in combination with MIT (a), plate 193C, day 2
  QA/a: 4.93
[1]; CHDM: MIC alone (QA) or conc. in combination with MIT (a), plate 193C, day 3
  QA/a: 2.78
[1]; CHDM: MIC alone (QA) or conc. in combination with MIT (a), plate 214C, day 2
  QA/a: 4.50
[1]; CHDM: MIC alone (QA) or conc. in combination with MIT (a), plate 214C, day 3
  QA/a: 6.00
[2]; CHDM alone (QA) or in combination with BA:DHA (a), plate 111A, day 1
  QA/a: 1.73
[2]; CHDM alone (QA) or in combination with IPBC (a), plate 119A, day 1
  QA/a: 1.73
[2]; CHDM alone (QA) or in combination with IPBC (a), plate 119A, day 2
  QA/a: 1.73
[2]; CHDM: MIC alone (QA) or conc. in combination with CP (a), plate 110A, day 1
  QA/a: 1.73
[2]; CHDM: MIC alone (QA) or conc. in combination with CP (a), plate 110A, day 2
  QA/a: 1.73
[2]; day 1 of incubation, plate 108A (MP series)
  QA, MIC of CHDM alone: 1.73 weight percent
[2]; day 1 of incubation, plates 105A, 213A, 223A (PE series)
  QA, MIC of CHDM alone: 1.30 weight percent and 1.47 weight percent
[2]; day 2 of incubation, plate 108A (MP series)
  QA, MIC of CHDM alone: 1.73 weight percent
[2]; day 2 of incubation, plates 105A, 213A, 223A (PE series)
  QA, MIC of CHDM alone: 1.30 weight percent and 1.47 weight percent
[2]; day 1
  QA/a: concentration of CHDM (MIC alone, or in the combination at an inhibitory concentration): 1.73 weight percent
  SI (synergy index): 1.00
[2]; day 2
  QA/a: concentration of CHDM (MIC alone, or in the combination at an inhibitory concentration): 1.73 weight percent
  SI (synergy index): 1.00
[2]; Table 44, Day 1
  QA/a: concentration of CHDM alone (QA, MIC): 1.73 weight percent
[2]; Table 44, Day 2
  QA/a: concentration of CHDM alone (QA, MIC): 1.73 weight percent
[2]; Table 47, Day 1
  QA/a: concentration of CHDM alone (QA, MIC): 1.73 weight percent
[2]; Table 47, Day 2
  QA/a: concentration of CHDM alone (QA, MIC): 1.73 weight percent

## CCCCCCC(O)CO (stereo not drawn) [CG, 1,2-octanediol]
[1]; Kull synergy index, synergistic when at least two results SI<1
  Synergism of antimicrobial agent in combination with 1,4-CHDM for A. niger (in words; in the 12th table the cell names the organism and table number): A. niger (14)
[2]; day 1
  QB/b: concentration of CG (MIC alone, or in the combination at an inhibitory concentration): 0.16 weight percent
  SI (synergy index): 1.00
[2]; day 2
  QB/b: concentration of CG (MIC alone, or in the combination at an inhibitory concentration): 0.16 weight percent
  SI (synergy index): 1.00
